Data on four compounds can be found in patent US6310065A, “Pyridazinone hydrochloride compound and method for producing the same” (Nissan Chemical Industries, Ltd., priority 1998, dated 2001).

Counter-ions that a name gives are not always drawn.

Data set [1] can be described thus: Physical properties and stability of the hydrochlorides, stated in words.
Data set [2] can be described thus: Hygroscopic test under conditions of 25° C. and 75% RH (Test Example 1). It counts as physicochemical. The method, then: Hygroscopic test of 2-hydrochloride and 3/2-hydrochloride under conditions of 25° C. and 75% RH
A humidity conditioning solution was prepared by using a saturated aqueous solution of sodium chloride, and the solution thus prepared was placed in a humidistat, and temperature-moisture conditions at 25° C. were adjusted. 0.4 g of 2-hydrochloride and 0.2 g of 3/2-hydrochloride were weighed respectively in a weighing bottle to prepare test samples, and the test samples were subjected to hygroscopic test under the above adjusted temperature-moisture conditions to measure a water content and a decomposed material content as a lapse of time and to compare hygroscopicity and stability of the test samples.

A short description of data set [3]: Pharmaceutical effect, stated in words.
Data set [4] is described as follows: Comparison of biological dynamics in a dog, 10 mg/kg oral administration by capsules. Format: in vivo. Particulars: for AUC (0-.infin.) / Cmax: 10 mg/kg oral administration by capsules, 10 mg/kg. How it is done:
Further, the compound (1) and its 3/2-hydrochloride (2) were compared with regard to biological dynamics in a dog. […] Result: (10 mg/kg oral administration by capsules)

Setting [5] is: 10 mg/kg oral by capsules, ratio to compound (1).

Take `COc1ccc(CNc2cn[nH]c(=O)c2Cl)cc1OCC(=O)N1CCN(Cc2ccccc2)CC1` [1-hydrochloride]: in data set [1], the “electrostatic charging of the crystal” value is listed as “easily electrostatically charged”, the hygroscopicity result is on record as “high hygroscopicity” and the solubility entry is given as “poor in solubility”.

As to `COc1ccc(CNc2cn[nH]c(=O)c2Cl)cc1OCC(=O)N1CCN(Cc2ccccc2)CC1` [2-hydrochloride, 2-Hydrochloride of 4-chloro-5-[3-(4-benzylpiperazin-1-yl)carbonylmethoxy-4-methoxybenzylamino]-3 (2H) -pyridazinone], the Water content worked out at 0.93% in data set [2] (Time 0), 4.17% in data set [2] (Time 1), 5.60% in data set [2] (Time 24) and 9.45% in data set [2] (Time 48). Moreover, the “Increased decomposed material content” value in data set [2] (Time 24) turned out to be 1.75%; in data set [2] (Time 48), 11.78%. Also, the degraded in data set [2] (solid, 75% rh, Time 1, read-out: Increased decomposed material content) amounted to 0.08%. Besides, the pharmaceutical effect entry in data set [3] is “excellent pharmaceutical effect”. Besides, the hygroscopicity entry in data set [1] was “highly hygroscopic”. Further, the “decomposition in a methanol solvent” value in data set [1] (methanol solvent) is listed as “rapidly decomposed in a methanol solvent”.

What is called Cmax is the maximum level reached in the sampled fluid or tissue. With `COc1ccc(CNc2cn[nH]c(=O)c2Cl)cc1OCC(=O)N1CCN(Cc2ccccc2)CC1` [Compound 1, 4-chloro-5-[3-(4-benzylpiperazin-1-yl)carbonylmethoxy-4-methoxybenzylamino]-3(2H)-pyridazinone], in data set [4], the “AUC (0-.infin.)” value came out at 844.3 ng·h/mL and the Cmax is 249.7 ng/mL.

Turning to `COc1ccc(CNc2cn[nH]c(=O)c2Cl)cc1OCC(=O)N1CCN(Cc2ccccc2)CC1` [Compound 2, 3/2-Hydrochloride of 4-chloro-5-[3-(4-benzylpiperazin-1-yl)carbonylmethoxy-4-methoxybenzylamino]-3 (2H) -pyridazinone], in data set [4], the “AUC (0-.infin.)” value is 1998.3 ng·h/mL and the Cmax was determined as 1349.0 ng/mL. In data set [4] (setting [5]), the “area under the curve (AUC) of time-concentration in blood (0-.infin.), times more preferable as compared with the compound (1)” value is on record as 2.3 times and the “maximum concentration in blood (Cmax), times higher as compared with the compound (1)” value turned out to be 5.4 times. Also, the Water content in data set [2] (Time 0) is listed as 2.03%. Besides, in data set [2] (Time 1), the “Increased decomposed material content” value was determined as 0.06% and the Water content was found to be 2.42%. Also, in data set [2] (Time 24), the “Increased decomposed material content” value came out at 0.17% and the Water content came to 2.34%. In addition, in data set [2] (Time 48), the “Increased decomposed material content” value was 0.18% and the Water content stood at 2.57%. Besides, the pharmaceutical effect entry in data set [3] is “equivalent to that of 2-hydrochloride”.
